The text below walks through data of patent US5698522A, “6-position modified decapeptide LHRH antagonists” (Abbott Laboratories, priority 1995, dated 1997).

*1 amine or outer side, *2 acyl side, *3 side chain or, on linkers, in order; H or OH if unused. Where a SMILES comes first, the peptide text is derived from it. Side-chain parts run from the residue outwards. [ ]: non-standard residue; d: D form. The star is where a group is joined. Shikimoyl = O=C(C1=C[C@@H](O)[C@@H](O)[C@H](O)C1)*; dPhe(4-Cl) = N[C@H](Cc1ccc(Cl)cc1)C(=O)O; d2Nal = N[C@H](Cc1ccc2ccccc2c1)C(=O)O; Lys(iPr) = CC(C)NCCCC[C@H](N)C(=O)O; NMeY = CN[C@@H](Cc1ccc(O)cc1)C(=O)O; Ethylenediamine = C(CN[*:2])N[*:1]; hArg = N=C(N)NCCCC[C@H](N)C(=O)O; d3Pal = N[C@H](Cc1cccnc1)C(=O)O; Nicotinoyl = O=C(c1cccnc1)*; Picolinoyl = O=C(c1ccccn1)*; CO = O=C([*:1])[*:2]; βAla = NCCC(=O)O; Sar = CNCC(=O)O

The target in this test is T1, LHRH receptor (Rattus norvegicus, UniProt P30969).
T1 construct: endogenous in cells
T1 sequence (P30969 1-327): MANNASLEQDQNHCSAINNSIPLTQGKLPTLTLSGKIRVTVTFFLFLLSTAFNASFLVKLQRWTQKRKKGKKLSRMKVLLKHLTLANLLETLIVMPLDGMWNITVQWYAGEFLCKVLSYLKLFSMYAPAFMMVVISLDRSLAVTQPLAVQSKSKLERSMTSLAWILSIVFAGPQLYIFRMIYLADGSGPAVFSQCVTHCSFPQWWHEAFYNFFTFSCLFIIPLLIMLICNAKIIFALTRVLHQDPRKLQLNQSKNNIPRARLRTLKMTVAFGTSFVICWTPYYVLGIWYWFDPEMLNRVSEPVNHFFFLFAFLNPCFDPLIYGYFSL
As to the kind of experiment: in vitro LHRH antagonist potency (pA2) against the agonist leuprolide. The test is classed as cell-based. The note with it: negative logarithm of the antagonist concentration which shifts the response curve produced by the agonist leuprolide to two-fold higher concentration. In short, it runs like this:
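Functional antagonism against the agonist leuprolide. pA2 is the negative log of antagonist concentration that shifts the leuprolide response curve to twofold higher concentration.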
Consider `CC(=O)N[C@H](Cc1ccc2ccccc2c1)C(=O)N[C@H](Cc1ccc(Cl)cc1)C(=O)N[C@H](Cc1cccnc1)C(=O)N[C@@H](CO)C(=O)N(C)[C@@H](Cc1ccc(O)cc1)C(=O)N[C@H](CCCCNC(=O)CN(C)C(=O)c1cccnc1)C(=O)N[C@@H](CC(C)C)C(=O)N[C@@H](CCCCNC(C)C)C(=O)N1CCC[C@H]1C(=O)N[C@H](C)C(N)=O` [Example 4d, NAc-D2Nal^1 -D4ClPhe^2 -D3Pal^3 -Ser^4 -NMeTyr^5 -DLys(N-epsilon-Sar-Nicotinyl)^6 -Leu^7 -Lys(N-epsilon-Isopropyl)^8 -Pro^9 -DAla^10 NH2] (Ac-[d2Nal][dPhe(4-Cl)][d3Pal]S[NMeY][dK]([Sar-Nicotinoyl])L[Lys(iPr)]P[dA]-NH2), for which the antagonist equilibrium constant (Kb) (as a rule, the equilibrium dissociation constant of an antagonist, usually derived from a functional assay) is 0.0138 nM. Take `CC(=O)N[C@H](Cc1ccc2ccccc2c1)C(=O)N[C@H](Cc1ccc(Cl)cc1)C(=O)N[C@H](Cc1cccnc1)C(=O)N[C@@H](CO)C(=O)N(C)[C@@H](Cc1ccc(O)cc1)C(=O)N[C@H](CCCCNC(=O)[C@@H](CO)NC(=O)CNC(=O)c1cccnc1)C(=O)N[C@@H](CC(C)C)C(=O)N[C@@H](CCCNC(=N)N)C(=O)N1CCC[C@H]1C(=O)N[C@H](C)C(N)=O` [Example 48k, NAc-D2Nal^1 -D4ClPhe^2 -D3Pal^3 -Ser^4 -NMeTyr^5 -DLys(N-epsilon-D-Ser-Gly-Nicotinyl)^6 -Leu^7 -Arg^8 -Pro^9 -DAla^10 NH2] (Ac-[d2Nal][dPhe(4-Cl)][d3Pal]S[NMeY][dK]([dS-Gly-Nicotinoyl])LRP[dA]-NH2): the Kb was 0.017 nM. Consider `CC(=O)N[C@H](Cc1ccc2ccccc2c1)C(=O)N[C@H](Cc1ccc(Cl)cc1)C(=O)N[C@H](Cc1cccnc1)C(=O)N[C@@H](CO)C(=O)N(C)[C@@H](Cc1ccc(O)cc1)C(=O)N[C@H](CCCCNC(=O)[C@@H](CO)NC(=O)c1cccnc1)C(=O)N[C@@H](CC(C)C)C(=O)N[C@@H](CCCCNC(C)C)C(=O)N1CCC[C@H]1C(=O)N[C@H](C)C(N)=O` [Example 4c, NAc-D2Nal^1 -D4ClPhe^2 -D3Pal^3 -Ser^4 -NMeTyr^5 -DLys[N-epsilon-DSer-Nicotinyl]^6 -Leu^7 -Lys(N-epsilon-Isopropyl)^8 -Pro^9 -DAla^10 NH2] (Ac-[d2Nal][dPhe(4-Cl)][d3Pal]S[NMeY][dK]([dS-Nicotinoyl])L[Lys(iPr)]P[dA]-NH2), for which the Kb was 0.0158 nM. `CC(=O)N[C@H](Cc1ccc2ccccc2c1)C(=O)N[C@H](Cc1ccc(Cl)cc1)C(=O)N[C@H](Cc1cccnc1)C(=O)N[C@@H](CO)C(=O)N(C)[C@@H](Cc1ccc(O)cc1)C(=O)N[C@H](CCCCNC(=O)CCNC(=O)C1=C[C@@H](O)[C@@H](O)[C@H](O)C1)C(=O)N[C@@H](CC(C)C)C(=O)N[C@@H](CCCNC(=N)N)C(=O)N1CCC[C@H]1C(=O)N[C@H](C)C(N)=O` [Example 48g, NAc-D2Nal^1 -D4ClPhe^2 -D3Pal^3 -Ser^4 -NMeTyr^5 -DLys(N-epsilon-Beta-alanyl-Shikimyl)^6 -Leu^7 -Arg^8 -Pro^9 -DAla^10 NH2] (Ac-[d2Nal][dPhe(4-Cl)][d3Pal]S[NMeY][dK]([βAla-Shikimoyl])LRP[dA]-NH2): the Kb was 0.0126 nM. In the case of `CC(=O)N[C@H](CO)C(=O)NCCCC[C@@H](NC(=O)[C@H](Cc1ccc(O)cc1)N(C)C(=O)[C@H](CO)NC(=O)[C@@H](Cc1cccnc1)NC(=O)[C@@H](Cc1ccc(Cl)cc1)NC(=O)[C@@H](Cc1ccc2ccccc2c1)NC(C)=O)C(=O)N[C@@H](CC(C)C)C(=O)N[C@@H](CCCCNC(=N)N)C(=O)N1CCC[C@H]1C(=O)N[C@H](C)C(N)=O` [Example 13, NAc-D2Nal^1 -D4ClPhe^2 -D3Pal^3 -Ser^4 -NMeTyr^5 -DLys(N-epsilon-DSer-Acetyl)^6 -Leu^7 -Harg^8 -Pro^9 -DAla^10 NH2] (Ac-[d2Nal][dPhe(4-Cl)][d3Pal]S[NMeY][dK]([dS-Ac])L[hArg]P[dA]-NH2) it was 0.00794 nM. As for `CC(=O)N[C@H](Cc1ccc2ccccc2c1)C(=O)N[C@H](Cc1ccc(Cl)cc1)C(=O)N[C@H](Cc1cccnc1)C(=O)N[C@@H](CO)C(=O)N(C)[C@@H](Cc1ccc(O)cc1)C(=O)N[C@H](CCCCNC(=O)NCCNC(=O)c1cccnc1)C(=O)N[C@@H](CC(C)C)C(=O)N[C@@H](CCCCNC(C)C)C(=O)N1CCC[C@H]1C(=O)N[C@H](C)C(N)=O` [Example 62, NAc-D2Nal^1 -D4ClPhe^2 -D3Pal^3 -Ser^4 -NMeTyr^5 -DLys(N-epsilon-N'-Carbonyl-Diaminoethane-N"-Nicotinyl)^6 -Leu^7 -Lys(N-epsilon-Isopropyl)^8 -Pro^9 -DAla^10 NH2] (Ac-[d2Nal][dPhe(4-Cl)][d3Pal]S[NMeY][dK]([CO-Ethylenediamine-Nicotinoyl])L[Lys(iPr)]P[dA]-NH2), the Kb is 0.0263 nM. In the case of `CC(=O)N[C@H](Cc1ccc2ccccc2c1)C(=O)N[C@H](Cc1ccc(Cl)cc1)C(=O)N[C@H](Cc1cccnc1)C(=O)N[C@@H](CO)C(=O)N(C)[C@@H](Cc1ccc(O)cc1)C(=O)N[C@H](CCCCNC(=O)[C@@H](CO)NC(=O)c1ccccn1)C(=O)N[C@@H](CC(C)C)C(=O)N[C@@H](CCCNC(=N)N)C(=O)N1CCC[C@H]1C(=O)N[C@H](C)C(N)=O` [Example 48b, NAc-D2Nal^1 -D4ClPhe^2 -D3Pal^3 -Ser^4 -NMeTyr^5 -DLys(N-epsilon-D-Ser-Picolinyl)^6 -Leu^7 -Arg^8 -Pro^9 -DAla^10 NH2] (Ac-[d2Nal][dPhe(4-Cl)][d3Pal]S[NMeY][dK]([dS-Picolinoyl])LRP[dA]-NH2) it was 0.0372 nM.
